Results: US20250152585A1, “PHARMACEUTICAL COMPOUND” (Duke Street Bio Limited, priority 2022, published 2025)
pIC50, pKd: −log10 of the molar value. Read-outs that look alike come from different tables or passages of the source.

What was measured:
[1] = target: T1, N-terminally FLAG-tagged PARP2 (amino acids 1-583) (Homo sapiens, UniProt Q9UGN5); assay: PARP2 probe displacement HTRF assay; assay type: binding; conditions: binned Kd
T1 construct: N-terminally FLAG-tagged PARP2 (amino acids 1-583)
T1 sequence (Q9UGN5 whole entry, the tested form may be a part): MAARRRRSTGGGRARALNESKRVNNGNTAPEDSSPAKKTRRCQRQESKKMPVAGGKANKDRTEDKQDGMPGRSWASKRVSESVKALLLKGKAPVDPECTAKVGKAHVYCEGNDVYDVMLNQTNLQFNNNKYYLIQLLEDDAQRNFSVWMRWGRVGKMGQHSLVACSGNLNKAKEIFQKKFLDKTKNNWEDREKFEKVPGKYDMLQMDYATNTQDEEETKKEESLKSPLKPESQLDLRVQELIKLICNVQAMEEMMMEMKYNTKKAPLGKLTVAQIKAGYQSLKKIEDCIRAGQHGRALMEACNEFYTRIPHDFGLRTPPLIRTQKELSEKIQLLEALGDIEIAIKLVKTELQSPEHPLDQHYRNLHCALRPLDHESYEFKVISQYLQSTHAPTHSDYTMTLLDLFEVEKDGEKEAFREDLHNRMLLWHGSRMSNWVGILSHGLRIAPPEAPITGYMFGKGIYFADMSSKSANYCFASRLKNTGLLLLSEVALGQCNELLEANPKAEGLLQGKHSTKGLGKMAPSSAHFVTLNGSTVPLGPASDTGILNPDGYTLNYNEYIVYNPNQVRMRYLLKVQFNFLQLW
Method: Data analysis was performed identical as for PARP1.

[2] = target: T2, full length N-terminally FLAG-tagged PARP1 (Homo sapiens, UniProt P09874); assay: PARP1 probe displacement HTRF assay; conditions: for Selectivity: PARP1 over PARP2, ratio Kd (PARP2)/Kd (PARP1); for pKd: binned Kd
T2 sequence (P09874 whole entry): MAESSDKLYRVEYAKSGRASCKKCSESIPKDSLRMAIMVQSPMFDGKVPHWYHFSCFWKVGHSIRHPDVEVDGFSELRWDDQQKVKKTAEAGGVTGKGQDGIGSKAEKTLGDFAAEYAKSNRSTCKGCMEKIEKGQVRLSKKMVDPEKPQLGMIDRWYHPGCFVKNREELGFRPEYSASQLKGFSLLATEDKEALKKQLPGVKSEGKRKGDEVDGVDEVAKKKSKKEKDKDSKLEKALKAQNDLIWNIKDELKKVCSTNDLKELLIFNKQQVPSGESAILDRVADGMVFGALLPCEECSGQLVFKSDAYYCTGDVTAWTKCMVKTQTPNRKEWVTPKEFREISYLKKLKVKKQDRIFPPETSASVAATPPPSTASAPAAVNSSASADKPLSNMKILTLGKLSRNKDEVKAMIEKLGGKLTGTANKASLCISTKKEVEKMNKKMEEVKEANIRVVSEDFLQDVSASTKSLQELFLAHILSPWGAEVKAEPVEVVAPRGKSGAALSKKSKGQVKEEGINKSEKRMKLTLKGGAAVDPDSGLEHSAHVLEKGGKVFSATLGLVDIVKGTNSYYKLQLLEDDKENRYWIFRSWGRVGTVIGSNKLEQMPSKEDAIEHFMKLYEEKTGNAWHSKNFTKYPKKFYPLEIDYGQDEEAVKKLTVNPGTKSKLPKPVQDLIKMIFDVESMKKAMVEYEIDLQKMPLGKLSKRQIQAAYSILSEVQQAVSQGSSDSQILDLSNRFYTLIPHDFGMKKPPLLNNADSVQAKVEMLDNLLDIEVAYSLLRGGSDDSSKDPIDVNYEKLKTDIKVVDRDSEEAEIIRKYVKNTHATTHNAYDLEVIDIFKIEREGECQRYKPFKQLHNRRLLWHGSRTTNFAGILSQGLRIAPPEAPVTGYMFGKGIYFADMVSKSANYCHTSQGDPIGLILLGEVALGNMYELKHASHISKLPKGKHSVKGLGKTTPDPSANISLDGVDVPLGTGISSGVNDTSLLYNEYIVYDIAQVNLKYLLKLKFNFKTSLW

[3] = target: T2, full length N-terminally FLAG-tagged PARP1; assay: PARP1 biochemical DELFIA assay (auto-PARylation); set-up: recombinant full length human N-terminally FLAG-tagged PARP1
[4] = read-out: PARP1 HTRF, PARP1 probe displacement HTRF
[5] = binned IC50, PARP1 biochemical DELFIA assay
[6] = PARP1 HTRF, PARP1 probe displacement HTRF
[7] = read-out: PARP1 HTRF, probe displacement HTRF
[8] = binned IC50, biochemical auto-PARylation assay

Compound | pKd ([1]; PARP2 probe displacement HTRF) | pKd [2, 4] | pIC50 [3, 5] | pKd [2, 6] | pKd ([1]; probe displacement HTRF) | pKd [2, 7] | pIC50 [3, 8] | pKd ([2]; PARP1 HTRF, probe displacement HTRF) | Selectivity ([2]; probe displacement HTRF)
CNC(=O)c1ccc(N2CCC(N3CCCC(c4nc5c(c(=O)[nH]4)CCCC5)C3)CC2)cn1 (single isomer, unassigned) [Compound 146b] | < 5.00 | 7.00 to 8.00 | 7.00 to 8.00 | – | – | – | – | – | +++ (+++ indicate a value of at least 100)
CNC(=O)c1ccc(N2CCC(N3CCC(c4nc5ccccc5c(=O)[nH]4)C3)CC2)c(Cl)n1 (racemic) [Compound 104rac] | 5.00 to 6.00 | > 8.00 | > 8.00 | – | – | – | – | – | +++ (+++ indicate a value of at least 100)
CNC(=O)c1ccc(N2CCC(N3CC4CC(c5nc6ccccc6c(=O)[nH]5)(C4)C3)CC2)cn1 [Compound 168] | < 5.00 | – | > 8.00 | > 8.00 | – | – | – | – | +++ (+++ indicate a value of at least 100)
CNC(=O)c1cc(C)c(N2CCC(N3CCC(c4cc5ccccc5c(=O)[nH]4)C3)CC2)cn1 (racemic) [Compound 195rac] | 6.00 to 7.00 | > 8.00 | > 8.00 | – | – | – | – | – | +++ (+++ indicate a value of at least 100)
CNC(=O)c1ccc(N2CCC(N3CCC(C)(c4nc5ccccc5c(=O)[nH]4)C3)CC2)cn1 (single isomer, unassigned) [Compound 67b] | 5.00 to 6.00 | 6.00 to 7.00 | 6.00 to 7.00 | – | – | – | – | – | + (+ indicates a value of 10 to less than 50)
N#Cc1ccc(N2CCC(N3CCC(c4nc5ccccc5c(=O)[nH]4)C3)CC2)nc1 (single isomer, unassigned) [Compound 55b] | 6.00 to 7.00 | 7.00 to 8.00 | 7.00 to 8.00 | – | – | – | – | – | − (− indicates a value of less than 10)
CNC(=O)c1ccc(N2CCC(N3CCC(c4ncc(C(F)(F)F)c(=O)[nH]4)C3)CC2)cn1 (single isomer, unassigned) [Compound 56a] | < 5.00 | 7.00 to 8.00 | 6.00 to 7.00 | – | – | – | – | – | ++ (++ indicates a value of 50 to less than 100)
CNC(=O)c1ccc(N2CCC(N3CCCC(C)(c4nc5ccccc5c(=O)[nH]4)C3)CC2)cn1 (single isomer, unassigned) [Compound 66a] | < 5.00 | 5.00 to 6.00 | 5.00 to 6.00 | – | – | – | – | – | − (− indicates a value of less than 10)
CNC(=O)c1ccc(N2CCC(N3CCCC(c4ccc(CC(F)(F)F)c(=O)[nH]4)C3)CC2)cn1 (single isomer, unassigned) [Compound 169b] | < 5.00 | 7.00 to 8.00 | > 8.00 | – | – | – | – | – | +++ (+++ indicate a value of at least 100)
CCc1cnc(C2CCN(C(=O)C3CCN(c4ccc(C(=O)NC)nc4)CC3)CC2)[nH]c1=O [Compound 41] | < 5.00 | – | 6.00 to 7.00 | 6.00 to 7.00 | – | – | – | – | + (+ indicates a value of 10 to less than 50)
CCNC(=O)c1ccc(N2CCC(N3CCCC(c4nc5ccccc5c(=O)[nH]4)C3)CC2)cn1 (single isomer, unassigned) [Compound 122b] | 5.00 to 6.00 | 6.00 to 7.00 | 7.00 to 8.00 | – | – | – | – | – | − (− indicates a value of less than 10)
CNC(=O)c1ccc(N2CCC(N3CCC(c4cc5[nH]nc(C(F)(F)F)c5c(=O)[nH]4)C3)CC2)cn1 (single isomer, unassigned) [Compound 194a, N-methyl-5-(4-(3-(4-oxo-3-(trifluoromethyl)-4,5-dihydro-1H-pyrazolo[4,3-c]pyridin-6-yl)pyrrolidin-1-yl)piperidin-1-yl)picolinamide] | 5.00 to 6.00 | – | 7.00 to 8.00 | 7.00 to 8.00 | – | – | – | – | + (+ indicates a value of 10 to less than 50)
O=C(NCC(F)(F)F)c1ccc(N2CCC(N3CCCC(c4nc5ccccc5c(=O)[nH]4)C3)CC2)cn1 (single isomer, unassigned) [Compound 115b] | 5.00 to 6.00 | 7.00 to 8.00 | 7.00 to 8.00 | – | – | – | – | – | +++ (+++ indicate a value of at least 100)
CNC(=O)c1ccc(N2CCC(N3CCCC(C)(c4nc5ccccc5c(=O)[nH]4)C3)CC2)cn1 (single isomer, unassigned) [Compound 66b] | < 5.00 | 5.00 to 6.00 | 5.00 to 6.00 | – | – | – | – | – | − (− indicates a value of less than 10)
CNC(=O)c1ccc(N2CCC(N3CCCC(c4nc5ccccc5c(=O)[nH]4)C3)CC2)c(C(F)(F)F)n1 (racemic) [Compound 138rac] | 5.00 to 6.00 | 7.00 to 8.00 | 7.00 to 8.00 | – | – | – | – | – | ++ (++ indicates a value of 50 to less than 100)

Continued, in another order:

pKd ([1]; PARP2 probe displacement HTRF) | pKd [2, 4] | pIC50 [3, 5] | pKd [2, 6] | pKd ([1]; probe displacement HTRF) | pKd [2, 7] | pIC50 [3, 8] | pKd ([2]; PARP1 HTRF, probe displacement HTRF) | Compound | Selectivity ([2]; probe displacement HTRF)
6.00 to 7.00 | 7.00 to 8.00 | 7.00 to 8.00 | – | – | – | – | – | CNC(=O)c1ncc(N2CCC(N3CCC(c4cc5cccc(F)c5c(=O)[nH]4)C3)CC2)cn1 (racemic) [Compound 215rac] | − (− indicates a value of less than 10)
– | – | – | – | 5.00 to 6.00 | > 8.00 | > 8.00 | – | N#Cc1ccc(N2CCC(N3CCC(c4cc5ccc(F)cc5c(=O)[nH]4)C3)CC2)c(F)c1 (single isomer, unassigned) [Compound 385a] | +++ (+++ indicate a value of at least 100)
– | – | – | – | < 5.00 | 6.00 to 7.00 | 6.00 to 7.00 | – | CNC(=O)c1ccc(N2CCC(N3CCC(c4nc5ncncc5c(=O)[nH]4)C3)CC2)cn1 (racemic) [Compound 335rac] | + (+ indicates a value of 10 to less than 50)
6.00 to 7.00 | > 8.00 | > 8.00 | – | – | – | – | – | CNC(=O)c1ccc(N2CCC(N3CCCC(c4nc5sc(C)c(C)c5c(=O)[nH]4)C3)CC2)cn1 (single isomer, unassigned) [Compound 199a] | +++ (+++ indicate a value of at least 100)
– | – | – | – | 6.00 to 7.00 | 7.00 to 8.00 | 7.00 to 8.00 | – | O=c1[nH]c(C2CCN(C3CCN(c4nc5ccccc5[nH]4)CC3)C2)cc2ccccc12 (racemic) [Compound 297rac] | − (− indicates a value of less than 10)
– | – | – | – | < 5.00 | 7.00 to 8.00 | 7.00 to 8.00 | – | CNC(=O)c1ccc(N2CCC(N3CCC(c4ccc(CC5CC5)c(=O)[nH]4)C3)CC2)c(F)n1 (single isomer, unassigned) [Compound 313a] | +++ (+++ indicate a value of at least 100)
6.00 to 7.00 | > 8.00 | > 8.00 | – | – | – | – | – | CNC(=O)c1ccc(N2CCC(N3CCC(c4ccc(CC5CC5)c(=O)[nH]4)C3)CC2)cn1 (single isomer, unassigned) [Compound 213b] | +++ (+++ indicate a value of at least 100)
– | – | – | – | 5.00 to 6.00 | > 8.00 | > 8.00 | – | CNC(=O)c1ccc(N2CCC(N3CCC(c4ccc(CC(F)F)c(=O)[nH]4)C3)CC2)cn1 (racemic) [Compound 391rac] | +++ (+++ indicate a value of at least 100)
– | – | – | – | > 8.00 | > 8.00 | > 8.00 | – | CNC(=O)c1ccc(N2CCC(N3CCC(c4cc5c(c(C(F)(F)F)nn5C)c(=O)[nH]4)C3)CC2)c(F)n1 (single isomer, unassigned) [Compound 407b] | + (+ indicates a value of 10 to less than 50)
– | – | – | – | < 5.00 | 5.00 to 6.00 | 5.00 to 6.00 | – | CNC(=O)c1ccc(N2CCC(N3CCC(c4cnc(C(F)(F)F)c(=O)[nH]4)C3)CC2)cn1 (single isomer, unassigned) [Compound 279b] | − (− indicates a value of less than 10)
– | – | – | – | 6.00 to 7.00 | > 8.00 | > 8.00 | – | CNC(=O)c1ccc(N2CCC(N3CCC(c4cc5ncc(F)cc5c(=O)[nH]4)C3)CC2)cn1 (single isomer, unassigned) [Compound 315b] | +++ (+++ indicate a value of at least 100)
– | – | – | – | 6.00 to 7.00 | 7.00 to 8.00 | 7.00 to 8.00 | – | CS(=O)(=O)Nc1ccc(N2CCC(N3CCC(c4cc5ccccc5c(=O)[nH]4)C3)CC2)cn1 (single isomer, unassigned) [Compound 252b] | + (+ indicates a value of 10 to less than 50)
– | – | – | – | 6.00 to 7.00 | 7.00 to 8.00 | 7.00 to 8.00 | – | CNC(=O)c1ccc(N2CCC(N3CCC(c4nc5[nH]nc(C(F)(F)F)c5c(=O)[nH]4)C3)CC2)c(F)n1 (single isomer, unassigned) [Compound 267a] | + (+ indicates a value of 10 to less than 50)
– | – | – | – | 6.00 to 7.00 | 6.00 to 7.00 | 6.00 to 7.00 | – | CNC(=O)c1ccc(N2CCC(N3CCC(c4cc5cccc(F)c5c(=O)[nH]4)C3)CC2)cc1F (single isomer, unassigned) [Compound 281b] | − (− indicates a value of less than 10)
– | – | – | – | 6.00 to 7.00 | > 8.00 | > 8.00 | – | N#Cc1ccc(N2CCC(N3CCC(c4cc5cccc(F)c5c(=O)[nH]4)C3)CC2)cc1 (single isomer, unassigned) [Compound 314a] | + (+ indicates a value of 10 to less than 50)
6.00 to 7.00 | > 8.00 | > 8.00 | – | – | – | – | – | CNC(=O)c1ccc(N2CCC(N3CCC(c4cc5cccc(F)c5c(=O)[nH]4)C3)CC2)nn1 (single isomer, unassigned) [Compound 209a] | +++ (+++ indicate a value of at least 100)
– | – | – | – | 6.00 to 7.00 | – | > 8.00 | > 8.00 | CNC(=O)c1ccc(N2CCC(N3CC4(c5nc6cccc(F)c6c(=O)[nH]5)CC3C4)CC2)cn1 [Compound 227] | +++ (+++ indicate a value of at least 100)
